Key:
[1] = system: protein tyrosine kinase; assay: Protein tyrosine kinase assay (Upstate test kit); format: biochemical; details: for Specificity ratio: IC50 protein tyrosine kinase relative to IκB kinase, > denotes better than; for IC50: ATP concentration of 50 μM, substrate Poly (Glu, Tyr 4:1) 1 mg/ml
Method: As examples of the specificities of the IκB kinase inhibitors which had been discovered, their IC50 values were determined in the case of the kinase enzyme protein tyrosine kinase.
Protein tyrosine kinase activity was determined using the appropriate test kit from Upstate Biotechnologie in accordance with the manufacturer's instructions and at an ATP concentration of 50 μM. As a difference from the manufacturer's method, Multi-Screen plates (Millipore; phosphocellulose MS-PH, cat. MAPHNOB10, or Durapore PVDF, cat. MADVNOB 50), were used, together with the appropriate exhaust system, instead of phospho-cellulose filters. Poly (Glu, Tyr 4:1) (Sigma cat. P0275) was used as the test kit substrate at a test concentration of 1 mg/ml. The plates were then measured in a Wallac MicroBeta scintillation counter. 100 μM of the test substance were used in each case.
The test substance was tested in a duplicate determination. The IC50 calculations were performed using the GraFit 3.0 software package.

[2] = target: T1, IκB kinase (Homo sapiens, UniProt O14920+O15111); assay: IκB kinase ELISA; format: biochemical
T1 construct: endogenous in cells; host or cells: HeLa S3 (S100 extract; ammonium sulfate cut, Superose-6 fractions at 670 kDa)

[3] = Comparison experiment: blood plasma level after oral administration, male NMRI mice; format: in vivo
Method: [drawing 27] was prepared as described in WO 01/30774 and is termed the comparison compound below. The comparison compound was administered to male NMRI mice. For this, in each case about 50 mg of the comparison compound per kg of body weight of the mice were administered orally as a suspension in 0.5% HEC (by way of a probang). Blood samples were taken after 0.25; 0.5; 1; 2; 4; 6 and 8 hours (sacrificial blood was withdrawn from in each case 2 animals at each of the time points mentioned). The blood samples were converted into heparin plasma. The plasma samples were stored at −20° C. until analyzed.
Analysis: The analysis was carried out using HPLC/UV.
(§1) Processing: 50 μl of plasma+20 μl of internal standard (5 μg/ml)+50 μl of buffer (1% formic acid/acetonitrile, 40:60, v/v) were mixed for about 10 sec on a Whirlmixer. 150 μl of acetonitrile were then added and the whole was mixed once again for about 10 sec. The samples were then centrifuged (Hettich, EBA 12, about 12 000 revolutions per min). The supernatants (in each case about 200 μl) were transferred to glass tubes. 100 μl of the supernatant were injected.

[4] = Blood plasma level after oral administration, male C57/BL6 mice; format: in vivo; details: about 25 mg/kg orally as suspension in 0.5% HEC, sampling 0.25-8 hours
Method: Blood plasma level of N-[(S)-2-diphenylamino-1-(5-oxo-4,5-dihydro[1,3,4]-oxadiazol-2-yl)ethyl]-2-(2-methylaminopyrimidin-4-yl)-1H-indol-5-carboxamide.
Blood samples were taken after 0.25; 0.5; 1; 2; 4; 6 and 8 hours (sacrificial blood was withdrawn from in each case 2 animals at each of the time points mentioned). The blood samples were converted into heparin plasma. The plasma samples were stored at −20° C. until analyzed.
The plasma samples were thawed. The plasma proteins which interfered with the analysis were then precipitated with acetonitrile.
as §1, with “(2 mMol ammonium formate solution, pH 2.6/acetonitrile,” for “(1% formic acid/acetonitrile,”, “minute).” for “min).”, “70” for “100”
The lower detection limit of the method is 0.01 μg/mL.

T1 sequence (O14920 whole entry): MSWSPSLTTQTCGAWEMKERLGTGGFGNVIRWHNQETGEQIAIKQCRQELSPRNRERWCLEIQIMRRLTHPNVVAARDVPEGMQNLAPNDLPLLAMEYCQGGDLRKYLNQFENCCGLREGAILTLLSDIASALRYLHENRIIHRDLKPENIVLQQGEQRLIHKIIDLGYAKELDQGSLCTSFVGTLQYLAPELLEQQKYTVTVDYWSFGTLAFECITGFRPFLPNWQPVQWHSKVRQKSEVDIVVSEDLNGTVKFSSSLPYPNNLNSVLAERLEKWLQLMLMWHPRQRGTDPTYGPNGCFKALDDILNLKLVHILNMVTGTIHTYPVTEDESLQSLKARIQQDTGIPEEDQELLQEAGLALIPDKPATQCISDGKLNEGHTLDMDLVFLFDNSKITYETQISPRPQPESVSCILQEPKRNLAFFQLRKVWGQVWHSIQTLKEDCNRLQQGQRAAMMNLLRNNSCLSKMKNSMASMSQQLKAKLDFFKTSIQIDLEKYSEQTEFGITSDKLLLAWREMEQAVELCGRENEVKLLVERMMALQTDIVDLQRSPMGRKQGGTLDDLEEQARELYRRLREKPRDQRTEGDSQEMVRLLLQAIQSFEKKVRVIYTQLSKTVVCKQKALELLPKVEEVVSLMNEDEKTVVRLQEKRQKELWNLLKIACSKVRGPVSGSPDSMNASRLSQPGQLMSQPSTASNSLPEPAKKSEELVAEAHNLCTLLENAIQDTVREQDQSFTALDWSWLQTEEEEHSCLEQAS
T1 sequence (O15111 whole entry): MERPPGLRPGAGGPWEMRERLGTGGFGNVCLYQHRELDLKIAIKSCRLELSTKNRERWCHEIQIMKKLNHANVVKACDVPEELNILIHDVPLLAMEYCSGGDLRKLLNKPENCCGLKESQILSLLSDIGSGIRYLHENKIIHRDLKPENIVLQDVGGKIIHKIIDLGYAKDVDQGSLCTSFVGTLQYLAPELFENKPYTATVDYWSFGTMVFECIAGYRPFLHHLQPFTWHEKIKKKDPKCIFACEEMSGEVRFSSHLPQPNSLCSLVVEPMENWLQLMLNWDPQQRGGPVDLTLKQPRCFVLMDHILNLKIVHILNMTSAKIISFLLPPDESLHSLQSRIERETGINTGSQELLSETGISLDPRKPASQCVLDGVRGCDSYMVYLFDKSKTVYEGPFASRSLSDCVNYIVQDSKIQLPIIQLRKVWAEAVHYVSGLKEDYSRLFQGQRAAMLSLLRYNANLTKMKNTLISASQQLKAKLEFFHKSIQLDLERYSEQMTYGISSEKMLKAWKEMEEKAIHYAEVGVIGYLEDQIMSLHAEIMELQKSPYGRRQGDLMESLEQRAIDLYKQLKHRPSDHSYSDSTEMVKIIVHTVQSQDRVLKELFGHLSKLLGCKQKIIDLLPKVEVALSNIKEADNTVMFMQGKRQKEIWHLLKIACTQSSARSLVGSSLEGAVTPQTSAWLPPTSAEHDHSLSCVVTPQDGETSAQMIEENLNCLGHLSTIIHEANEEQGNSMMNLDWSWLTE
T1 sequence (Q9Y6K9 whole entry partner): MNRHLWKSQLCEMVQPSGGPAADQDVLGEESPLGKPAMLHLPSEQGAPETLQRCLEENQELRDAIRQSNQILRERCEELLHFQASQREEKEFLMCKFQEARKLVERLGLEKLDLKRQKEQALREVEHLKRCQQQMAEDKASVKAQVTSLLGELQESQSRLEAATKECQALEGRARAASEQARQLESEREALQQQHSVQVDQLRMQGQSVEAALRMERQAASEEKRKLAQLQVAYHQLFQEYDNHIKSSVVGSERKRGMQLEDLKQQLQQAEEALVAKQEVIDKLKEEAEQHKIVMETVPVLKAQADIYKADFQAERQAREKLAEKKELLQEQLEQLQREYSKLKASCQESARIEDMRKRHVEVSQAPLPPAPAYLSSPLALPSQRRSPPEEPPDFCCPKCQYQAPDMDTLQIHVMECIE

| Structure (SMILES) | Specificity ratio [1] | IC50 [2] [nM] | other results |
| --- | --- | --- | --- |
| CCN(C[C@H](NC(=O)c1ccc2[nH]c(-c3ccncc3)cc2c1)C(N)=O)c1ccccc1 [comparison compound] | – | – | IC50 [1]: 46.4 µM; ratio of the IC50 values for protein tyrosine kinase relative to IκB kinase ([1]; for the comparison compound the IκB kinase IC50 is taken from WO 01/30774): 46.35; maximum blood plasma level lower than with compound 28 ([3]; comparison compound 50 mg/kg vs compound 28 25 mg/kg, oral, mice): about 60%; plasma level, at most (maximum blood plasma level) ([3]; male NMRI mice, about 50 mg/kg orally as suspension in 0.5% HEC, sampling 0.25-8 hours): 1.5 µg/mL; AUC ([3]; mouse, plasma, po, male NMRI mice, about 50 mg/kg orally as suspension in 0.5% HEC, sampling 0.25-8 hours, read-out: exposure, measured as the AUC=area under the curve): 1700 ng·h/mL |
| CNc1nccc(-c2cc3cc(C(=O)N[C@@H](CN(c4ccccc4)c4ccccn4)c4n[nH]c(=O)o4)ccc3[nH]2)n1 [Example 33, N-[(S)-1-(5-Oxo-4,5-dihydro-1,3,4-oxadiazol-2-yl)-2-(phenylpyridin-2-ylamino)ethyl]-2-(2-methylaminopyrimidin-4-yl)-1H-indole-5-carboxamide] | >833 | 12 | – |
| CNc1nccc(-c2cc3cc(C(=O)N[C@@H](CN(c4ccccc4)c4nccc(C(F)(F)F)n4)C(=O)O)ccc3[nH]2)n1 [Example 54, (S)-2-{[2-(2-Methylaminopyrimidin-4-yl)-1H-indole-5-carbonyl]amino}-3-[phenyl-(4-trifluoromethylpyrimidin-2-yl)amino]propionic Acid] | >3330 | 3 | – |
| CNc1nccc(-c2cc3cc(C(=O)N[C@@H](CN(c4ccccc4)c4ccccc4)c4n[nH]c(=O)o4)ccc3[nH]2)n1 [Example 28, N-[(S)-2-Diphenylamino-1-(5-oxo-4,5-dihydro[1,3,4]oxadiazol-2-yl)ethyl]-2-(2-methylaminopyrimidin-4-yl)-1H-indole-5-carboxamide] | – | – | IC50 [1]: 82.5 µM; plasma level, at most (maximum blood plasma level) [4]: 4.3 µg/mL; AUC ([4]; mouse, plasma, po, read-out: exposure, measured as AUC=area under the curve): 5400 ng·h/mL |
| CNc1nccc(-c2cc3cc(C(=O)NC(CN(c4ccc(F)cc4)c4ccccn4)C(N)=O)ccc3[nH]2)n1 (stereo not drawn) [Example 30, N-{1–Carbamoyl-2-[(4-fluorophenyl)pyridin-2-ylamino]ethyl}-2-(2-methylaminopyrimidin-4-yl)-1H-indole-5-carboxaminde] | >200 | 50 | – |
| CNc1nccc(-c2cc3cc(C(=O)N[C@@H](CN(c4ccccc4)c4nccs4)C(N)=O)ccc3[nH]2)n1 [Example 42, N-[1–Carbamoyl-2-(phenylthiazol-2-ylamino)ethyl]-S-2-(2-methylaminopyrimidin-4-yl)-1H-indole-5-carboxamide] | >1110 | 9 | – |
| CNc1nccc(-c2cc3cc(C(=O)NC(CN(c4ccc(F)cc4)c4ncc(C)cn4)C(N)=O)ccc3[nH]2)n1 (stereo not drawn) [Example 61, N-{1–Carbamoyl-2-[(4-fluorophenyl)-(5-methylpyrimidin-2-yl)amino]ethyl}-2-(2-methylaminopyrimidin-4-yl)-1H-indole-5-carboxamide] | >1650 | 6 | – |

More lines, main results first:

| Specificity ratio [1] | IC50 [2] [nM] | Structure (SMILES) | other results |
| --- | --- | --- | --- |
| >5000 | 2 | CNc1nccc(-c2nc3cc(C(=O)NC(CN(c4ccccc4)c4ccccn4)C(N)=O)ccc3[nH]2)n1 (stereo not drawn) [Example 67, N-{1–Carbamoyl-2-[(phenyl)pyridin-2-ylamino]ethyl}-2-(2-methylaminopyrimidin-4-yl)-1H-benzimidazole-5-carboxamide] | – |
| >1000 | 10 | NC(=O)C(CN(c1ccc(F)cc1)c1ccccn1)NC(=O)c1ccc2[nH]c(-c3ccnc(N)n3)cc2c1 (stereo not drawn) [Example 35, N-{1–Carbamoyl-2-[(4-fluorophenyl)pyridin-2-ylamino]ethyl}-2-(2-aminopyrimidin-4-yl)-1H-indole-5-carboxamide] | – |
| >2500 | 4 | CNc1nccc(-c2nc3cc(C(=O)NC(CN(c4ccccc4)c4ncccn4)C(N)=O)ccc3[nH]2)n1 (stereo not drawn) [Example 65, N-{1–Carbamoyl-2-[(phenyl)pyrimidin-2-ylamino]ethyl}2-(2-methylaminopyrimidin-4-yl)-1H-benzimidazole-5-carboxamide] | – |
| – | 35 | CNc1nccc(-c2cc3cc(C(=O)NC(CN(c4ccccc4)c4ncccn4)C(=O)NCCO)ccc3[nH]2)n1 (stereo not drawn) [Example 49, N-[1-(2-Hydroxyethylcarbamoyl)-2-(phenylpyrimidin-2-ylamino)ethyl]-2-(2-methylaminopyrimidin-4-yl)-1H-indole-5-carboxamide] | – |
| >1665 | 6 | CNc1nccc(-c2cc3cc(C(=O)NC(CN(c4ccccc4)c4ncccn4)C(N)=O)ccc3[nH]2)n1 (stereo not drawn) [Example 47, N-{1–Carbamoyl-2[(phenyl)pyrimidin-2-ylamino]ethyl}-2-(2-methylaminopyrimidin-4-yl)-1H-indole-5-carboxamide] | – |
| >12500 | 0.8 | CNc1nccc(-c2cc3cc(C(=O)N[C@@H](CN(c4ccccc4)c4ccccn4)C(=O)NOC)ccc3[nH]2)n1 [Example 43, N-[1-Methoxycarbamoyl-2-(phenylpyridin-2-ylamino)ethyl]-S-2-(2-methylaminopyrimidin-4-yl)-1H-indole-5-carboxamide] | – |
| >2000 | 5 | CNc1nccc(-c2cc3cc(C(=O)NC(CN(c4ccc(F)cc4)c4ccccn4)c4nnc[nH]4)ccc3[nH]2)n1 (stereo not drawn) [Example 36, N-[2-[(4-Fluorophenyl)pyridin-2-ylamino]-1-(4H-[1,2,4]triazol-3-yl)ethyl]-2-(2-methylaminopyrimidin-4-yl)-1H-indole-5-carboxamide] | – |
| >1000 | 3 | CNc1nccc(-c2nc3cc(C(=O)N[C@@H](CN(c4ccccc4)c4ccccc4)C(N)=O)ccc3[nH]2)n1 [Example 63] | – |
